Measured values reported in US20080311231A1, “Broad Spectrum Non-Traditional Preservative System” (priority 2005, published 2008).

Legend:
Assay type in all cases: cell-based
C. albicans [1] = experiment: Preservative activity in cream base, Method A (Example 3); conditions: 10^5 cfu inoculum, room temperature, 24 hours
Description: (§1) Method of evaluation—Method A: 500 μl or 250 μl of each of the following preservatives was added to 49.5/49.75 gm of the cream base to obtain the desired concentrations for testing as in Table 3, and mixed well. 1.0 gm of this base+preservative formulation was dispensed into several culture tubes and each tube was inoculated with 10 μl of culture containing 10^5 cfu (colony forming units) of test organism. The tubes were incubated at room temperature. After 24 hours the tubes were removed and 9 ml of drug inactivating medium was added and mixed. After making another dilution (1:10) with drug inactivating medium, a 0.5 ml aliquot was subcultured on to a TSA plate. Colony counts were measured after 24 hours incubation at 37° C.
(§2) Result: Preservative activity of various creams utilizing a concentration of test organism of 10^5 cfu/gm and incubation at room temperature is shown in Table 4.

E. coli [2] = experiment: as above; conditions: 10^5 cfu inoculum, room temperature, 24 hours
Description: as §1, §2

S. aureus [3] = experiment: as above; conditions: 10^5 cfu inoculum, room temperature, 24 hours
Description: as §1, §2

P. aeruginosa [4] = experiment: Preservative activity in cream, Method A inoculum (text of Example 4); conditions: 0.5% Octanediol; organism at 10^5 cfu/gm (so in the source)
Description: as §1
(§3) Evaluation of the synergistic activity of octanediol and AHA combinations against higher concentrations of P. aeruginosa. Since 0.5% Octanediol kills 100% of P. aeruginosa at a concentration of 10^5 cfu/gm, the test was repeated with this organism at 10^7 cfu/gm.

P. aeruginosa [5] = experiment: Efficacy of preservatives against higher concentrations of P. aeruginosa (Example 4); conditions: 10^7 cfu per gm cream, 37° C.
Description: as §1, §3
Method of evaluation: Same as described in Method A except a higher inoculum was used. A 100 μl inoculum containing 10^7 cfu of P. aeruginosa was added to each 1 gm of cream and incubated at 37° C.

C. albicans [6] = experiment: Method B, Symrise oil/water cream base (Examples 5 and 6); conditions: for Colony counts (CFU/gm) C. albicans: 0.2% w/w in Symrise oil/water cream, 10^7 CFU/gm
Description: Activity of lower concentration of Symdiol™ (0.2% w/w) with organic acids was measured. The cream base used in this study was supplied by Symrise Corporation. This base is an oil/water base. […] Method of evaluation: Method B was used for this test. Method B: Same as described in Method A except a higher inoculum was used. […] Microbial growth measured as CFU was counted after 24 hour incubation at 37° C. The cream base used in this study was supplied by Symrise Corporation. This base is an oil/water base. […] Method of evaluation: Method B was used for this test with C. albicans as test organism.

C. albicans [7] = experiment: Method C, oil/water base incubated at 30° C. (Examples 7 and 8); conditions: 10^7 cfu/gm, 24 hours
Description: Evaluation of the effect of various preservative compositions incorporated in an oil/water base against C. albicans (yeast) incubated at 30° C. Yeast and fungi grow optimally at 30° C. and therefore the efficacy of the preservative was evaluated at this temperature.
Method of evaluation: Method C: Same as Method B except that incubation was at 30° C. and subculturing is done on Sabouraud agar.
The following preservatives at 1.0% and 0.5% concentrations were added to the cream. C. albicais at 10^7 cfu/gm base was added to the base and incubated at 30° C. for 24 hours.
Efficacy of preservatives incorporated in the oil/water base and inoculated with the yeast C. albicans and fungus Aspergillus niger.
The cream base and the cream containing the preservatives were inoculated with 10^7 cfu of C. albicans/gm and 105 cfu of Aspergillus niger/gm; and incubated at 30° C. for 24 hours and 48 hours.
Method of Evaluation: Testing was done using Method C.

E. coli [8] = experiment: Method B, Symrise oil/water cream base (Example 5); conditions: 0.2% w/w in Symrise oil/water cream; 10^7 CFU/gm; 37° C., 24 hour
Description: (§4) Activity of lower concentration of Symdiol™ (0.2% w/w) with organic acids was measured. The cream base used in this study was supplied by Symrise Corporation. This base is an oil/water base.
(§5) Method of evaluation: Method B was used for this test. Method B: Same as described in Method A except a higher inoculum was used. A 100 μL inoculum containing 10^7 CFU of test organism was added to each 1 gm of cream and incubated at 37° C. Microbial growth measured as CFU was counted after 24 hour incubation at 37° C.

P. aeruginosa [9] = experiment: Method B, Symrise oil/water cream base (Example 5); conditions: 0.2% w/w in Symrise oil/water cream; 10^7 CFU/gm; 37° C., 24 hour
Description: as §4, §5

S. aureus [10] = experiment: Method B, Symrise oil/water cream base (Example 5); conditions: 0.2% w/w in Symrise oil/water cream; 10^7 CFU/gm; 37° C., 24 hour
Description: as §4, §5

[11] = printed as 20% (single ingredient)

## CCCCCCC(O)CO (stereo not drawn)
C. albicans [1]; 0.3% w/w in cream
  Colony counts (CFU/gm) C. albicans: 2.0 × 10^5 CFU/gm
C. albicans [1]; 0.5% w/w in cream
  Colony counts (CFU/gm) C. albicans: 5.2 × 10^2 CFU/gm
E. coli [2]; 0.3% w/w in cream
  Colony counts (CFU)/gm E. coli: 5.4 × 10^4 CFU/gm
E. coli [2]; 0.5% w/w in cream
  Colony counts (CFU)/gm E. coli: 0 CFU/gm
S. aureus [3]; 0.3% w/w in cream
  Colony counts (CFU)/gm S. aureus: 4.0 × 10^4 CFU/gm
S. aureus [3]; 0.5% w/w in cream
  Colony counts (CFU)/gm S. aureus: 1.5 × 10^3 CFU/gm
P. aeruginosa [4]
  kills P. aeruginosa: 100%
P. aeruginosa [5]; 0.5% w/w in cream
  Colony counts (CFU/gm) P. aeruginosa: 1.6 × 10^3 CFU/gm
C. albicans [6]; Table 7, Method B
  Colony counts (CFU/gm) C. albicans: 1.0 × 10^5 CFU/gm
C. albicans [7]; printed as 30% (single ingredient)
  C. albicans (CFU/gm cream): 1.4 × 10^5 CFU/gm cream
C. albicans [7]; printed as 50% (single ingredient)
  C. albicans (CFU/gm cream): 0 CFU/gm cream

## O=C(O)CC(O)(CC(=O)O)C(=O)O [Citric acid]
C. albicans [1]; 0.2% w/w in cream
  Colony counts (CFU/gm) C. albicans: 1.0 × 10^5 CFU/gm
E. coli [2]; 0.2% w/w in cream
  Colony counts (CFU)/gm E. coli: 7.3 × 10^4 CFU/gm
S. aureus [3]; 0.2% w/w in cream
  Colony counts (CFU)/gm S. aureus: 5.0 × 10^4 CFU/gm
P. aeruginosa [5]; 0.2% w/w in cream
  Colony counts (CFU/gm) P. aeruginosa: 2.5 × 10^6 CFU/gm
E. coli [8]
  Colony counts (CFU)/gm E. coli: 2.0 × 10^6 CFU/gm
P. aeruginosa [9]
  Colony counts (CFU/gm) P. aeruginosa: 1.0 × 10^6 CFU/gm
S. aureus [10]
  Colony counts (CFU)/gm S. aureus: 2.0 × 10^4 CFU/gm
C. albicans [6]; 37° C., 24 hour
  Colony counts (CFU/gm) C. albicans: 2.0 × 10^6 CFU/gm
C. albicans [6]; Table 7, Method B
  Colony counts (CFU/gm) C. albicans: 2.0 × 10^6 CFU/gm
C. albicans [6]; with a lower concentration of octanediol (0.2% w/w)
  activity of the combination against C. albicans in words (conclusion of Example 6): enhanced activity
C. albicans [7]; [11]
  C. albicans (CFU/gm cream): 2.5 × 10^6 CFU/gm cream

## CC(O)C(=O)O (stereo not drawn) [Lactic acid]
C. albicans [1]; 0.2% w/w in cream
  Colony counts (CFU/gm) C. albicans: 1.5 × 10^4 CFU/gm
E. coli [2]; 0.2% w/w in cream
  Colony counts (CFU)/gm E. coli: 2.3 × 10^4 CFU/gm
S. aureus [3]; 0.2% w/w in cream
  Colony counts (CFU)/gm S. aureus: 3.0 × 10^3 CFU/gm
P. aeruginosa [5]; 0.2% w/w in cream
  Colony counts (CFU/gm) P. aeruginosa: 2.0 × 10^6 CFU/gm
E. coli [8]
  Colony counts (CFU)/gm E. coli: 1.2 × 10^6 CFU/gm
P. aeruginosa [9]
  Colony counts (CFU/gm) P. aeruginosa: 2.0 × 10^6 CFU/gm
S. aureus [10]
  Colony counts (CFU)/gm S. aureus: 6.0 × 10^4 CFU/gm
C. albicans [6]; 37° C., 24 hour
  Colony counts (CFU/gm) C. albicans: 2.0 × 10^6 CFU/gm
C. albicans [6]; Table 7, Method B
  Colony counts (CFU/gm) C. albicans: 2.0 × 10^6 CFU/gm
C. albicans [7]; 0.12% (single ingredient)
  C. albicans (CFU/gm cream): 4.2 × 10^6 CFU/gm cream
C. albicans [7]; [11]
  C. albicans (CFU/gm cream): 5 × 10^6 CFU/gm cream
